The numbers were not newly measured in patent publication US20240261294A1, “METHOD FOR TREATING IDH INHIBITOR-RESISTANT SUBJECTS” (Eli Lilly and Company, priority 2021, published 2024), which cites them from elsewhere.

Structures are written as SMILES.

This data set deals with IDH2-Q316E and IDH2-1319M. The settings on record: preclinical studies; cited from earlier work.

For the molecule `CC(C)(O)CNc1nc(Nc2ccnc(C(F)(F)F)c2)nc(-c2cccc(C(F)(F)F)n2)n1` [enasidenib], the “binding and inhibition of the mutant enzymes” value was “no longer able to bind and inhibit the mutant enzymes”.
